Assay results published in patent publication US20240082219A1, “METHODS FOR AMELIORATING AND PREVENTING AGE-RELATED MUSCLE DEGENERATION” (NANJING NUTRABUILDING BIO-TECH CO., LTD., priority 2021, published 2024).

Key:
[1] = system: skeletal muscles mitochondria; test: ATP production, O2 consumption and P/O ratio in skeletal muscle mitochondria from treated mice; assay type: in vivo, C57BL/6J mice; conditions: isolated skeletal muscle mitochondria of old mice treated for 4 months, vs OM group
Procedure: The healthy and male C57BL/6J mice at 20 months of age (Old Mice, OM) and at 2 months of age (Young Mice, YM) were maintained under the barrier conditions in a temperature-controlled environment and fed a commercial mouse chow. They were divided into the following five groups: (1) non-supplement young mice group (YM, n=5); (2) non-supplement old mice group (OM, n=5); (3)L-Ergothioneine supplement group with low dosage (OM+5 mg/kg/day, n=5); (4) L-Ergothioneine supplement group with moderate dosage (OM+15 mg/kg/day, n=5); and(5) L-Ergothioneine supplement group with high dosage (OM+45 mg/kg/day, n=5). All mice were administered L-Ergothioneine for once daily by gavage in normal saline solution for 4 months. Mice were euthanized by CO2 inhalation followed by cervical dislocation at the end of study and skeletal muscles were excised for an immediate isolation of mitochondria. Extracting skeletal muscles mitochondria from mice to measure ATP production and O2 consumption. ATP production was measured using a luciferase/luciferin based system. O2 consumption was measured using optical spectra. The all data were analyzed to identify the L-Ergothioneine function for improving ATP production and O2 consumption. […] Statistical significance was determined using one-way ANOVA followed by Tukey's post hoc test (N=5, *P<0.05, **P<0.01, ***P<0.001 vs OM Group).

[2] = system: C57BL/6J mice at 20 months of age (Old Mice, OM); test: Motor coordination on rotating rod (Time to Fall); assay type: in vivo; conditions: once daily by gavage for 4 months, vs OM group
Procedure: The healthy and male C57BL/6J mice at 20 months of age (Old Mice, OM) and at 2 months of age (Young Mice, YM) were maintained under the barrier conditions in a temperature-controlled environment and fed a commercial mouse chow. They were divided into the following five groups: (1) non-supplement young mice group (YM, n=5); (2) non-supplement old mice group (OM, n=5); (3)L-Ergothioneine supplement group with low dosage (OM+5 mg/kg/day, n=5); (4) L-Ergothioneine supplement group with moderate dosage (OM+15 mg/kg/day, n=5); and(5) L-Ergothioneine supplement group with high dosage (OM+45 mg/kg/day, n=5). All mice were administered L-Ergothioneine for once daily by gavage in normal saline solution for 4 months. Mice were euthanized by CO2 inhalation followed by cervical dislocation at the end of study and skeletal muscles were excised for an immediate isolation of mitochondria. Motor coordination deficits were performed by placing the mouse on a rotating rod (Beijing Zhishuduobao, DB093) and measuring how long it takes before mice fall off the rod (Time to Fall (s)). […] Statistical significance was determined using one-way ANOVA followed by Tukey's post hoc test (N=5, *P<0.05, **P<0.01, vs OM Group).

[3] = Body weight and body composition (lean mass ratio) of old mice; assay type: in vivo, C57BL/6J mice; conditions: old mice, 5, 15 or 45 mg/kg/day by gavage for 4 months, vs OM group
Procedure: The healthy and male C57BL/6J mice at 20 months of age (Old Mice, OM) and at 2 months of age (Young Mice, YM) were maintained under the barrier conditions in a temperature-controlled environment and fed a commercial mouse chow. They were divided into the following five groups: (1) non-supplement young mice group (YM, n=5); (2) non-supplement old mice group (OM, n=5); (3)L-Ergothioneine supplement group with low dosage (OM+5 mg/kg/day, n=5); (4) L-Ergothioneine supplement group with moderate dosage (OM+15 mg/kg/day, n=5); and(5) L-Ergothioneine supplement group with high dosage (OM+45 mg/kg/day, n=5). All mice were administered L-Ergothioneine for once daily by gavage in normal saline solution for 4 months. Mice were euthanized by CO2 inhalation followed by cervical dislocation at the end of study and skeletal muscles were excised for an immediate isolation of mitochondria. The bodyweight of C57BL/6 mice was recorded before treatment, once per week during the study, and at the end of the study. Body composition (lean mass ratio) of mice was analyzed using the (NM42-[…]-1 system, Suzhou Niumag) before treatment, once per month during the study, and at the end of the study. […] Statistical significance was determined using one-way ANOVA followed by Tukey's post hoc test (N=5, *P<0.05, **P<0.01, vs OM Group).

[4] = system: C57BL/6J mice at 20 months of age (Old Mice, OM); test: Forelimb grip strength (grip strength meter); assay type: in vivo; conditions: once daily by gavage for 4 months, vs OM group
Procedure: The healthy and male C57BL/6J mice at 20 months of age (Old Mice, OM) and at 2 months of age (Young Mice, YM) were maintained under the barrier conditions in a temperature-controlled environment and fed a commercial mouse chow. They were divided into the following five groups: (1) non-supplement young mice group (YM, n=5); (2) non-supplement old mice group (OM, n=5); (3)L-Ergothioneine supplement group with low dosage (OM+5 mg/kg/day, n=5); (4) L-Ergothioneine supplement group with moderate dosage (OM+15 mg/kg/day, n=5); and(5) L-Ergothioneine supplement group with high dosage (OM+45 mg/kg/day, n=5). All mice were administered L-Ergothioneine for once daily by gavage in normal saline solution for 4 months. Mice were euthanized by CO2 inhalation followed by cervical dislocation at the end of study and skeletal muscles were excised for an immediate isolation of mitochondria. Forelimb grip strength were analyzed using the rip strength meter (Bioseb, BIO-GS3) with mouse-specific wire grid (100×80 mm, angled 90° (vertical)), once per month during the study and at the end of the study. […] Statistical significance was determined using one-way ANOVA followed by Tukey's post hoc test (N=5, *P<0.05, **P<0.01, ***P<0.001 vs OM Group).

[5] = system: C57BL/6J mice at 20 months of age (Old Mice, OM); test: Tissue weights of soleus and gastrocnemius muscle, age-induced muscle loss; assay type: in vivo; conditions: after 4 months administration by gavage, vs OM group
Procedure: The healthy and male C57BL/6J mice at 20 months of age (Old Mice, OM) and at 2 months of age (Young Mice, YM) were maintained under the barrier conditions in a temperature-controlled environment and fed a commercial mouse chow. They were divided into the following five groups: (1) non-supplement young mice group (YM, n=5); (2) non-supplement old mice group (OM, n=5); (3)L-Ergothioneine supplement group with low dosage (OM+5 mg/kg/day, n=5); (4) L-Ergothioneine supplement group with moderate dosage (OM+15 mg/kg/day, n=5); and(5) L-Ergothioneine supplement group with high dosage (OM+45 mg/kg/day, n=5). All mice were administered L-Ergothioneine for once daily by gavage in normal saline solution for 4 months. Mice were euthanized by CO2 inhalation followed by cervical dislocation at the end of study and skeletal muscles were excised for an immediate isolation of mitochondria. FIGS. 1A-1D show the test results related to effect of EGT treatment on age-induced muscle loss in mice monthly, particularly regarding body weight measurement (FIG. 1A), lean mass ratio (FIG. 1B), tissue weights of soleus muscle (FIG. 1C), and tissue weights of gastrocnemius muscle (FIG. 1D). Statistical significance was determined using one-way ANOVA followed by Tukey's post hoc test (N=5, *P<0.05, **P<0.01, vs OM Group).

SMILES: C[N+](C)(C)[C@@H](Cc1c[nH]c(=S)[nH]1)C(=O)[O-] [L-Ergothioneine]
- ATP synthesis [1]: increase of ATP synthesis
- P/O ratio (ATP produced per O2 consumed) [1]: increase of ATP synthesis and P/O ratio
- time on rotating rod (Time to Fall) [2]: prolong time of maintain on a rotating rod
- body composition (lean mass ratio) [3]: no significant difference
- body weight [3]: no significant difference
- forelimb grip strength [4]: ameliorating and preventing the loss of muscle grip strength
- weight of the gastrocnemius muscle [5]: prevented this reduction
- weight of the soleus muscle [5]: prevented this reduction
